The results in this text go back to patent US9283277B2, “Methods and compositions for the treatment of obesity” (Children's Medical Center Corporation, priority 2008, dated 2016).

The subject of this assay is HFD-fed obese C57BL/6 wt mice. As to the kind of experiment: TUDCA and leptin in HFD-induced obesity model. The assay is classed as in vivo. On the procedure: (a) Hypothalamic PERK phosphorylation (Thr980) after 21 days of vehicle or TUDCA (150 mg/kg/day) treatment. Following a five-day pretreatment with TUDCA (150 mg/kg/day) or vehicle, nine-ten week old ob/ob mice were treated either with leptin (1 mg/kg/day) or vehicle. (b) Body weight (g), (c) % decrease in body weight, (d) daily food intake of the ob/ob mice during 18 days of treatment period with the indicated regimens. (e) Blood glucose (mg/dl) levels at the 18th day of treatment. Metabolic cage studies were performed; (f) CO2 production (ml/kg/hr), (g) O2 consumption (ml/kg/hr), (h) Respiratory exchange ratio (VCO2/VO2), (i) X-axis ambulatory activity, (j) Heat generation (kcal/hr). Dexa scan analysis of (k) total fat amount (g), (l) fat % and (m) lean body mass (g). C57BL/6 male wt mice were kept on HFD feeding for 32 weeks and following a five day acclimation period were pretreated with TUDCA (150 mg/kg/day) for five days. At the end of pretreatment period intraperitoneal vehicle and leptin (1 mg/kg/day) treatments were started. (n) Body weight (g), (o) % decrease in bodyweight of the HFD-fed mice during the 16-day treatment. (n=6 for VEH, n=7 for Lep, n=7 for TUD, n=8 for TUD+Lep group). Error bars are ±S.E.M., P values are determined by Student's t-test. (*p<0.05, **p<0.01, ***p<0.001)
We next tested the efficacy of TUDCA as a leptin sensitizer in the HFD-induced obesity model. In this experiment we used 35 weeks old and C57BL/6 wt mice, which were kept on HFD-feeding for 32 weeks. We divided the mice into two groups for TUDCA and TUDCA-leptin co-treatment. Body weight of the mice in this cohort was between 35-52 g. We specifically chose the mice with the highest bodyweight for TUDCA and leptin co-treatment group to investigate whether leptin will become effective in these severely obese mice when administered along with the TUDCA. The initial body weight of the TUDCA group was 38.33±1.16 (g) and TUDCA+leptin group was 48.46±1.82 (g) (FIG. 5n). Following an initial five days acclimation period mice were treated with TUDCA (150 mg/kg/day) for […], and subsequently either vehicle or […] treatment was started. […] Following the acclimation, TUDCA pretreatment was started and following the five-day pretreatment, vehicle and leptin (1 mg/kg/day) administration were initiated. TUDCA alone led to a significant decrease in bodyweight by reducing the initial weight from 36.16±0.99 (g) to 32.61±0.65 during the 16 days of treatment period (FIG. 5n). This reduction corresponds to an 8.60% decrease in bodyweight (FIG. 5o). […] Indeed, in our experience TUDCA acts as a much more powerful chemical chaperone when compared to PBA, as doses of TUDCA necessary for reducing ER stress in cellular systems^25 or as a leptin-sensitizing agent is much lower than PBA. […]

[1] abbreviates: mice on HFD 32 weeks, TUDCA 150 mg/kg/day with vehicle or leptin 1 mg/kg/day, 16 days.

SMILES strings stand for the structures.

As for `C[C@H](CCC(=O)NCCS(=O)(=O)O)[C@H]1CC[C@H]2[C@@H]3[C@@H](O)C[C@@H]4C[C@H](O)CC[C@]4(C)[C@H]3CC[C@]12C` [TUDCA, tauroursodeoxycholic acid], the “initial body weight of the group (before acclimation)” value (C57BL/6 wt mice on HFD 32 weeks) was found to be 38.33 ± 1.16 g. Under setting [1], the “body weight after treatment” value was found to be 32.61 ± 0.65 g and the decrease in bodyweight was determined as 8.60%. Also, under “mice on HFD 32 weeks, after acclimation”, the “initial weight at start of treatment period” value came out at 36.16 ± 0.99 g.
